From patent EP4563579A1, “MACROCYCLIC EGFR INHIBITOR, AND PREPARATION METHOD THEREFOR AND PHARMACEUTICAL USE THEREOF” (Abbisko Therapeutics Co., Ltd., priority 2022, dated 2024)

Columns and labels:
Type in all cases: cell-based
A431 WT = experiment: Cell proliferation assay (CellTiter-Glo), A431 WT; conditions: Homo sapiens, A-431; A431 WT cells, 72 hour incubation, CTG readout
Method: (§1) • DMEM Medium (Gibco, Cat#11965118) • RPMI1640 Medium (Gibco, Cat#11875119) • Fetal Bovine Serum (FBS) (GBICO, Cat#10099-141) • CellTiter-Glo® Luminescent Cell Viability Assay Kit (Promega, Cat#G7572) 96-well, Black, Clear Flat Bottom Plate (Corning®, Cat# 3603)
(§2) • SpectraMax Multimode Microplate Reader MD, 2104-0010A; • CO2 Incubator, Thermo Scientific 3100 Series; • Biosafety Cabinet, Thermo Scientific, 1300 Series A2; • Inverted Microscope, Olympus, CKX41SF; • Siemens Refrigerator, KK25E76TI.
(§3) • 1. Cell Culture and Inoculation: • (1) Harvest cells in a logarithmic growth phase and count the cells using a […]. Test cell viability using a trypan blue exclusion method to ensure that cell viability is above 90%. • (2) Adjust the cell concentration to desired final density; and add 90 µL of cell suspension to a 96-well plate. • (3) Incubate the cells overnight at 37°C, under 5% CO2 and 95% humidity in the 96-well plate. • 2. T0 Reference Data: • (1) Add 10 µL PBS to each well of the T0 plate containing cells. • (2) Thaw the CTG reagent and equilibrate the plate to room temperature for 30 minutes. • (3) Add an equal volume of CTG solution to each well. • (4) Lyse cells by shaking on an orbital shaker for 5 minutes. • (5) Leave the plate at room temperature for 20 minutes to stabilize the luminescence signal. • (6) Read the T0 […]. • 3. Compound Dilution and Addition • (1) Add a corresponding volume of DMSO to a corresponding compound powder according to the compound information sheet to prepare a 10 mM stock solution. • (2) Prepare 1000-fold and 3.16-fold diluted compound solutions. • (3) Dilute the 1000× diluted compound solution 100-fold with PBS to prepare a 10-fold compound solution, with a maximum concentration of 10 µM, nine concentrations and 3.16-fold dilution. Then add 10 µL of the drug solution concentration to individual wells of the 96-well plate seeded with cells. Test each compound concentration in triplicate wells, and the final DMSO concentration is 0.1%. • (4) Incubate the cells in the 96-well plate containing the drug compounds at 37°C, under 5% CO2, and 95% humidity for an additional 72 hour period prior to performing the CTG analysis. • 4. Fluorescence Signal Reading • (1) Thaw the CTG reagent and equilibrate the plate to room temperature for 30 minutes. • (2) Add an equal volume of CTG solution to each well. • (3) Lyse cells by shaking on an orbital shaker for 5 minutes. • (4) Leave the plate at room temperature for 20 minutes to stabilize the […]. • (5) Read fluorescence value. • 5. Data Processing
(§4) Analyze the data by using GraphPad Prism 7.0 software, and use Non-linear S-curve regression to fit the dose-response curves, to calculate the IC50 values (in nM). The specific experiment results are presented in Table 1: [formula] Table 1: Biology Test Results

[1] = test system: Ba/F3 EGFR-L858R-T790M-C797S (LTC); experiment: Cell proliferation assay (CellTiter-Glo), Ba/F3 LTC; conditions: Mus musculus, BaF3; Ba/F3 EGFR-L858R-T790M-C797S cells, 72 hour incubation, CTG readout
Method: as §1, §2, §3, §4

[2] = test system: Ba/F3 EGFR-DEL19-T790M-C797S (DTC); experiment: Cell proliferation assay (CellTiter-Glo), Ba/F3 DTC; conditions: Ba/F3 EGFR-DEL19-T790M-C797S cells, 72 hour incubation, CTG readout; read-out: IC50 BaF3 DTC
Method: as §1, §2, §3, §4

[3] = test system: Ba/F3 EGFR-L858R-C797S (LC); experiment: Cell proliferation assay (CellTiter-Glo), Ba/F3 LC; conditions: Mus musculus, BaF3; Ba/F3 EGFR-L858R-C797S cells, 72 hour incubation, CTG readout
Method: as §1, §2, §3, §4

[4] = test system: Ba/F3 EGFR-DEL19-C797S (DC); experiment: Cell proliferation assay (CellTiter-Glo), Ba/F3 DC; conditions: Mus musculus, BaF3; Ba/F3 EGFR-DEL19-C797S cells, 72 hour incubation, CTG readout
Method: as §1, §2, §3, §4

| IC50 (A431 WT) | IC50 [1] | IC50 [2] | IC50 [3] | IC50 [4] | SMILES |
| --- | --- | --- | --- | --- | --- |
| 0.645 µM | 0.0285 µM | 0.0163 µM | 0.0335 µM | 0.0114 µM | Cn1ncc2c1OCC1(CCCC1)Cn1nc(N3CC(CS(C)(=O)=O)C3)c3cnc(cc31)Nc1ccnc-2n1 [Example 26, 1'-methyl-3'-(3-((methylsulfonyl)methyl)azetidin-1-yl)s piro(cyclopentane-1,6'-8-oxa-3-aza-4(6,1)-pyrazolo[4,3-c]pyridina-2(2,4)-pyrimidina-1(4,5)-pyrazolacyclooctaphane)] |
| 0.366 µM | 0.0043 µM | 0.0048 µM | 0.0108 µM | 0.0035 µM | CC(C)S(=O)(=O)C[C@@H]1CCN(c2nn3c4cc(ncc24)Nc2ccnc(n2)-c2cnn(C)c2OCC2(CCCC2)C3)C1 [Example 31, (R)-3'-(3-((isopropylsulfonyl)methyl)pyrrolidin-1-yl)-1 '-methylspiro(cyclopentane-1,6'-8-oxa-3-aza-4(6,1)-pyrazolo[4,3-c]pyridina-2(2,4)-pyrimidina-1(4,5)-pyrazolacyclooctaphane)] |
| 0.543 µM | 0.0121 µM | 0.0105 µM | 0.0149 µM | 0.0051 µM | Cn1ncc2c1OCC1(CCCCC1)Cn1nc(N3CC[C@@H](CS(C)(=O)=O)C3)c3cnc(cc31)Nc1ccnc-2n1 [Example 32, (R)-1'-methyl-3'-(3-((methylsulfonyl)methyl)pyrrolidin-1-yl)spiro(cyclohexane-1, 6'-8-oxa-3-aza-4(6,1)-pyrazolo[4,3-c]pyridina-2(2,4)-pyrimidina-1(4,5)-pyrazolacyclooctaphane)] |
| 0.7 µM | 0.0013 µM | 0.0036 µM | 0.0029 µM | 0.005 µM | CCCCS(=O)(=O)C[C@H]1CCN(c2nn3c4cc(ncc24)Nc2ccnc(n2)-c2cnn(C)c2OCC2(CCCC2)C3)C1 [Example 43, (S)-3'-(3-((butylsulfonyl)methyl)pyrrolidin-1-yl)-1'-me thylspiro(cyclopentane-1,6' -8-oxa-3-aza-4(6,1)-pyrazolo[4,3-c]pyridina-2(2,4)-pyrimidina-1(4,5)-pyrazolacyclooctaphane)] |
| 1.13 µM | 0.0019 µM | 0.004 µM | 0.0053 µM | 0.0101 µM | Cn1ncc2c1OCC1(CCCC1)Cn1nc(N3CC[C@H](CS(=O)(=O)C4CCC4)C3)c3cnc(cc31)Nc1ccnc-2n1 [Example 44, (S)-3'-(3-((cyclobutylsulfonyl)methyl)pyrrolidin-1-yl)-1 '-methylspiro(cyclopentane-1,6'-8-oxa-3-aza-4(6,1)-pyrazolo[4,3-c]pyridina-2(2,4)-pyrimidina-1(4,5)-pyrazolacyclooctaphane)] |
| 0.738 µM | 0.0011 µM | 0.0039 µM | 0.0029 µM | 0.004 µM | Cn1ncc2c1OCC1(CCCC1)Cn1nc(N3CC[C@H](CS(=O)(=O)C4CCCC4)C3)c3cnc(cc31)Nc1ccnc-2n1 [Example 45, (S)-3'-(3-((cyclopentylsulfonyl)methyl)pyrrolidin-1-yl)-1'-methylspiro(cyclopentane-1,6'-8-oxa-3-aza-4(6,1)-pyrazolo[4,3-c]pyridina-2(2, 4)-pyrimidina-1(4,5)-pyrazolacyclooctaphane)] |

Second part, the molecule before the results:

| SMILES | IC50 (A431 WT) | IC50 [1] | IC50 [2] | IC50 [3] | IC50 [4] |
| --- | --- | --- | --- | --- | --- |
| CN1CCC(F)(C#Cc2nn3c4cc(ncc24)Nc2ccnc(n2)-c2cnn(C)c2OCC2(CCCC2)C3)CC1 [Example 9, 3'-((4-fluoro-1-methylpiperidin-4-yl)ethynyl)-1'-methyls piro(cyclopentane-1,6'-8-oxa-3-aza-4(6,1)-pyrazolo[4,3-c]pyridina-2(2,4)-pyrimidina-1(4,5)-pyrazolacyclooctaphane)] | 1.92 µM | 0.047 µM | 0.0184 µM | 0.0627 µM | 0.0328 µM |
| CN1CCC(F)(C#Cc2nn3c4cc(ncc24)Nc2ccnc(n2)-c2cnn(C)c2OCC2(CCOCC2)C3)CC1 [Example 11, 3'-((4-fluoro-1-methylpiperidin-4-yl)ethynyl)-1'-methyl-2,3,5,6-tetrahydrospiro(pyran-4,6'-8-oxa-3-aza-4(6,1)-pyrazolo[4,3-c]pyridina-2(2,4)-pyrimidina-1(4,5)-pyrazolacyclooctaphane)] | 0.807 µM | 0.133 µM | 0.0922 µM | 0.187 µM | 0.128 µM |
| Cn1ncc2c1OCC1(CCCC1)Cn1nc(N3CC[C@@H](CO)C3)c3cnc(cc31)Nc1ccnc-2n1 [Example 21, (R)-(1-(1'-methylspiro(cyclopentane-1,6'-8-oxa-3-aza-4(6,1)-pyrazolo[4,3-c]pyridina-2(2,4)-pyrimidina-1(4,5) -pyrazolacyclooctaphane)-3 '-yl)pyrrolidin-3-yl)methanol] | 0.171 µM | 0.0047 µM | 0.0034 µM | 0.0158 µM | 0.0071 µM |
| Cn1ncc2c1OCC1(CCCC1)Cn1nc(N3CC[C@](C)(O)C3)c3cnc(cc31)Nc1ccnc-2n1 [Example 23, (S)-3-methyl-1-(1'-methylspiro(cyclopentane-1,6'-8-oxa-3-aza-4(6,1)-pyrazolo[4,3-c]pyridina-2(2,4)-pyrimidina-1(4,5)-pyrazolacyclooctaphane)-3'-yl)pyrrolidin-3-ol] | 0.771 µM | 0.0081 µM | 0.0035 µM | 0.0195 µM | 0.0078 µM |
| Cn1ncc2c1OCC1(CCC1)Cn1nc(N3CC(CS(C)(=O)=O)C3)c3cnc(cc31)Nc1ccnc-2n1 [Example 25, 1'-methyl-3'-(3-((methylsulfonyl)methyl)azetidin-1-yl)s piro(cyclobutane-1,6'-8-oxa-3-aza-4(6,1)-pyrazolo[4,3-c]pyridina-2(2,4)-pyrimidina-1(4,5)-pyrazolacyclooctaphane)] | 0.571 µM | 0.106 µM | 0.0426 µM | 0.123 µM | 0.0665 µM |
| Cn1ncc2c1OCC1(CCCC1)Cn1nc(N3CC[C@@H](CS(C)(=O)=O)C3)c3cnc(cc31)Nc1ccnc-2n1 [Example 27, (R)-1'-methyl-3'-(3-((methylsulfonyl)methyl)pyrrolidin-1-yl)spiro(cyclopentane-1 ,6'-8-oxa-3-aza-4(6,1)-pyrazolo[4,3-c]pyridina-2(2,4)-pyrimidina-1(4,5)-pyrazolacyclooctaphane)] | 0.587 µM | 0.0052 µM | 0.001 µM | 0.0134 µM | 0.0011 µM |
| Cn1ncc2c1OCC1(CCCC1)Cn1nc(N3CCC[C@@H](CS(C)(=O)=O)C3)c3cnc(cc31)Nc1ccnc-2n1 [Example 28, (R)-1'-methyl-3'-(3-((methylsulfonyl)methyl)piperidin-1-yl)spiro(cyclopentane-1, 6'-8-oxa-3-aza-4(6,1)-pyrazolo[4,3-c]pyridina-2(2,4)-pyrimidina-1(4,5)-pyrazolacyclooctaphane)] | 0.682 µM | 0.0869 µM | 0.0124 µM | 0.0457 µM | 0.0128 µM |
| Cn1ncc2c1OCC1(CCCC1)Cn1nc(N3CC[C@@H](CS(=O)(=O)C4CC4)C3)c3cnc(cc31)Nc1ccnc-2n1 [Example 30] | 0.744 µM | 0.0058 µM | 0.0024 µM | 0.0118 µM | 0.0025 µM |
| Cn1ncc2c1OCC1(CCCCC1)Cn1nc(N3CC[C@H](CS(C)(=O)=O)C3)c3cnc(cc31)Nc1ccnc-2n1 [Example 36, (S)-1'-methyl-3'-(3-((methylsulfonyl)methyl)pyrrolidin-1-yl)spiro(cyclohexane-1,6' -8-oxa-3-aza-4(6,1)-pyrazolo[4,3-c]pyridina-2(2,4)-pyrimidina-1(4,5)-pyrazolacyclooctaphane)] | 0.614 µM | 0.002 µM | 0.0015 µM | 0.0051 µM | 0.0025 µM |
